Test results: publication PMC8789663 (The Journal of Biological Chemistry, 2021)

How the values were obtained:
rat islets [1] = test: Perifusion assay of rat islet GSIS, step-wise glucose increase 2.8 to 16.7 mM; conditions: for potentiation of first and second phase GSIS by cyclic nucleotide analog prodrug: 10 μM, representative of six independent experiments; for block of potentiation of GSIS by GLP-1, PKC inhibitors: 10 µM; for block of potentiation of GSIS by GLP-1 (1 nM), PLC inhibitor or negative control: 1 µM, pretreatment for 40 min; for effect of PLC inhibitor or negative control alone on GSIS: 1 µM in Fig. S2
GcgR = conditions: cited from earlier work
GLP-1R = conditions: cited from earlier work
mouse islets = conditions: cited from earlier work
PKA [2] = tested on: T1, PKA; test: Live-cell FRET assay (435 nm excitation, 485/535 emission ratio, pH 7.4) with PKA substrate reporter AKAR3; inhibition of PKA activity stimulated by GLP-1.; format: cell-based, INS-1 832/13 cells transduced with AKAR3; conditions: n = 12
T1 construct: endogenous PKA, read out indirectly with FRET reporter AKAR3 (PKA substrate)

rat islets [3] = test: Perifusion assay of rat islet GSIS, linear glucose gradient; format: cell-based, Sprague–Dawley rat
Procedure: Monophasic insulin secretion from rat islets was measured in response to a linear gradient of glucose concentrations beginning at 3 mM and ending at 30 mM when delivered over a 50 min time course.
The panels A3–C3 illustrate box and whiskers AUC analyses with accompanying ANOVA derived p values where each symbol is the AUC value for the islets of a single perifusion chamber.

β-cell GSIS = conditions: cited from earlier work
Source text: (§1) A selective effect is possible based on our previous report that the cAMP antagonist prodrug Rp-8-Br-cAMPS-pAB abolished first-phase but not second-phase GSIS in response to glucose alone ([25]).

Epac = conditions: read-out: IC50, block of GLP-1-stimulated cAMP (H188); INS-1 832/13 cells transduced with H188, GLP-1 stimulated
Epac1 and Epac2 = conditions: unconjugated Rp-8-Br-cAMPS; cited from earlier work
Source text: as §1

PKA [4] = conditions: unconjugated Rp-8-Br-cAMPS; cited from earlier work
Source text: as §1

islets = conditions: raising levels of cAMP; cited from earlier work
Source text: Identifying the mechanism for this switch from cAMP-independent to cAMP-dependent insulin secretion is of great interest. Shibasaki et al. ([33]) reported a cAMP-regulated mechanism of insulin secretion that results from “restless newcomer” exocytosis in which Epac2 activation mobilizes cytoplasmic secretory granules so that they quickly transit to the plasma membrane for release without pausing in a “docked” state. When islets are stimulated with glucose alone, this newcomer exocytosis is more prominent during first-phase as compared with second-phase GSIS. Raising levels of cAMP by treatment ...

[5] = target: endogenous rat GLP-1 receptor (rat (endogenous in INS-1 832/13 cells and rat islets)) (UniProt P32301)
rat perfused pancreas = conditions: ref 11 (Moens et al.); cited from earlier work
[6] = Rp-8-Br-cAMPS-pAB 10 μM, five independent experiments

Chain of endogenous rat GLP-1 receptor (rat (endogenous in INS-1 832/13 cells and rat islets)) (P32301 22-463): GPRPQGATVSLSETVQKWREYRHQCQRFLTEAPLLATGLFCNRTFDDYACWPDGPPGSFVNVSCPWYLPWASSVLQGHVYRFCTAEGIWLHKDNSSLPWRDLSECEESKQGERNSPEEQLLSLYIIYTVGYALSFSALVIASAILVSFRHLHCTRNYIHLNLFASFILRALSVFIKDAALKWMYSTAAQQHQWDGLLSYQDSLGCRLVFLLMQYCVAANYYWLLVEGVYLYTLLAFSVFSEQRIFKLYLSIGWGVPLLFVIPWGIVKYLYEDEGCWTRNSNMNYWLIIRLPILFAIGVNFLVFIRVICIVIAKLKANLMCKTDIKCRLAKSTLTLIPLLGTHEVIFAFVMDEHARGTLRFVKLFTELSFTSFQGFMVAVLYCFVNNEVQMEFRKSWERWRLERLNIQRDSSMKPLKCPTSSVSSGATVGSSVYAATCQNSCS

Compound: CC(=O)OCOP1(=O)OCC2OC(n3cnc4c(NC(=O)c5ccccc5)ncnc43)C(O)C2O1 (centres unmarked) [6-Bnz-cAMP-AM]
- potentiation of first and second phase GSIS by cyclic nucleotide analog prodrug (rat islets [1]): potentiated

Compound: CO[C@@H]1[C@@H]2OP(=O)(OCOC(C)=O)OC[C@H]2O[C@H]1n1c(Sc2ccc(Cl)cc2)nc2c(N)ncnc21 (some centres unmarked) [8-pCPT-2′-O-Me-cAMP-AM]
- potentiation of first and second phase GSIS by cyclic nucleotide analog prodrug (rat islets [1]): potentiated

Compound: CN(C)C[C@@H]1CCn2cc(c3ccccc32)C2=C(C(=O)NC2=O)c2cn(c3ccccc23)CCO1 [LY 333531]
- block of potentiation of GSIS by GLP-1, PKC inhibitors (rat islets [1]): failed to block

Compound: COc1ccc2cc(-c3cc(-c4cc(Cl)cc(Cl)c4)nn3[C@@H](C)c3ccc(C(=O)NCCC(=O)O)cc3)ccc2c1 [MK0893]
- glucagon action at the GcgR (GcgR): antagonizes
- action at the GLP-1R (GLP-1R): antagonizes
- glucagon-stimulated insulin secretion from mouse islets (mouse islets): inhibit

Compound: Cn1cc(C2=C(c3cn(CCCSC(=N)N)c4ccccc34)C(=O)NC2=O)c2ccccc21 [Ro 31-8220]
- block of potentiation of GSIS by GLP-1, PKC inhibitors (rat islets [1]): failed to block

Compound: CC(=O)Oc1ccc(CSP2(=O)OC[C@H]3O[C@@H](n4c(Br)nc5c(N)ncnc54)[C@H](O)[C@@H]3O2)cc1 (some centres unmarked) [Rp-8-Br-cAMPS-pAB, Rp-8-Br-cAMPS para-acetoxybenzyl (pAB) ester; membrane-permeable prodrug bioactivated by cytosolic esterases to Rp-8-Br-cAMPS]
- IC50 (PKA [2]): 2800 nM

Compound: CC(=O)Oc1ccc(CSP2(=O)OC[C@H]3O[C@@H](n4c(Br)nc5c(N)ncnc54)[C@H](O)[C@@H]3O2)cc1 (some centres unmarked) [Rp-8-Br-cAMPS-pAB]
- effect on glucagon-potentiated GSIS in the gradient assay (rat islets [3]; Rp-8-Br-cAMPS-pAB 10 μM vs glucagon 10 nM): blocked
- effect on GSIS stimulated by a glucose gradient alone (rat islets [3]; Rp-8-Br-cAMPS-pAB 10 μM, three independent experiments): failed to inhibit
- effect on first-phase GSIS in response to glucose alone (β-cell GSIS): abolished
- effect on second-phase GSIS in response to glucose alone (β-cell GSIS): not
- antagonist action versus 5 nM GLP-1 in comparison with 1 nM GLP-1 (rat islets [1]; Rp-8-Br-cAMPS-pAB 10 μM): weaker
- block of potentiation of GSIS by glucagon (rat islets [1]; Rp-8-Br-cAMPS-pAB 10 μM vs 10 nM glucagon, three independent experiments): blocked
- block of potentiation of first and second phase GSIS by GLP-1 (rat islets [1]; Rp-8-Br-cAMPS-pAB 10 μM vs GLP-1 5, 1, and 0.1 nM): blocked
- effect on second-phase GSIS in the presence of GLP-1 (rat islets [1]; Rp-8-Br-cAMPS-pAB 10 μM, GLP-1 1 nM): greatly reduced the amplitude of second-phase GSIS
- effect on first-phase GSIS in response to glucose alone (rat islets [1]; [6]): blocked first-phase GSIS
- effect on second-phase GSIS in response to glucose alone (rat islets [1]; [6]): little ability to reduce second-phase GSIS
- IC50 (Epac): 1400 nM

Compound: Nc1ncnc2c1nc(Br)n2C1OC2COP(O)(=S)OC2C1O (centres unmarked) [Rp-8-Br-cAMPS]
- inhibition of stimulatory effects of endogenous cAMP at Epac1 and Epac2 (Epac1 and Epac2): competitively inhibits
- inhibition of stimulatory effects of endogenous cAMP at PKA (PKA [4]): competitively inhibits

Compound: COc1ccc2c(c1)CC[C@@H]1[C@@H]2CC[C@]2(C)[C@@H](NCCCCCCN3C(=O)C=CC3=O)CC[C@@H]12 [U73122]
- block of potentiation of GSIS by GLP-1 (1 nM), PLC inhibitor or negative control (rat islets [1]; GLP-1 1 nM): failed to block
- effect of PLC inhibitor or negative control alone on GSIS (rat islets [1]): potentiated GSIS

Compound: COc1ccc2c(c1)CC[C@@H]1[C@@H]2CC[C@]2(C)[C@@H](NCCCCCCN3C(=O)CCC3=O)CC[C@@H]12 [U73343]
- block of potentiation of GSIS by GLP-1 (1 nM), PLC inhibitor or negative control (rat islets [1]; GLP-1 1 nM): failed to block
- effect of PLC inhibitor or negative control alone on GSIS (rat islets [1]): not reproduced

Compound: C=C[C@@]1(C)CC(=O)[C@]2(O)[C@@]3(C)[C@@H](O)CCC(C)(C)[C@@H]3[C@H](O)[C@H](OC(C)=O)[C@@]2(C)O1 [forskolin]
- newcomer exocytosis during first-phase (islets): potentiates
- newcomer exocytosis during second-phase (islets): greatly increasing

Compound: GLP-1[7-36]amide (ligand)
- PKA activity (AKAR3 FRET reporter) in INS-1 832/13 cells [5]: 88 pM
- rise of cAMP (H188 FRET reporter) in INS-1 832/13 cells [5]: 1.9 nM

Compound: des-His^1-Glu^9-glucagon
- effect on glucagon-potentiated GSIS in the gradient assay (rat islets [3]; des-His1-Glu9-glucagon 3 µM vs glucagon 10 nM, single experiment): not inhibited
- effect on GSIS stimulated by a glucose gradient alone (rat islets [3]; des-His1-Glu9-glucagon 3 µM, single experiment): failed to inhibit
- insulin secretion in response to glucose alone, perfused rat pancreas (rat perfused pancreas): not reduced
